In patent US20030165854A1, “Marker genes responding to treatment with toxins” (priority 2000, published 2003):
Read-outs that look alike come from different tables or passages of the source.

Tests used:
[1] = system: rat liver cDNAs SEQ ID NOs: 62-202; test: Abundance of cDNA clones in toxin-treated rat liver cDNA libraries (transcript imaging), Sprague-Dawley; assay type: in vivo; settings: Strain SD
Method: Columns 1 and 2 show the SEQ ID NO and Clone ID of the rat cDNA clone, respectively.
Abundance of a clone was determined by counting the number of clones present in a master cluster.
Abundance of a particular cDNA in the library profile was determined by summing the total number of copies of the clones present in the master cluster in that library.

P450 3A2 = test: Gene expression (fold change) of known genes in toxin-treated rat liver, cDNA library transcript imaging; assay type: in vivo; settings: clofibrate-treated rat liver, vs untreated liver
P450 4A = settings: clofibrate-treated rat liver, vs untreated liver
[2] = system: rat liver cDNAs SEQ ID NOs: 1-61; assay type: in vivo, Han/Wistar rat; settings: Strain HW
P450 LA-omega 4A3 = test: Gene expression (fold change) of known genes in toxin-treated rat liver, cDNA library transcript imaging; settings: clofibrate-treated rat liver, vs untreated liver

CCOC(=O)C(C)(C)Oc1ccc(Cl)cc1 [clofibrate]
Maximum Abundance, SEQ ID NO 110, Clone ID 700192259 [1]: 5 | Maximum Abundance, SEQ ID NO 111, Clone ID 700269330 [1]: 4 | Maximum Abundance, SEQ ID NO 112, Clone ID 701317696 [1]: 5 | Maximum Abundance, SEQ ID NO 163, Clone ID 700025278 [1]: 4 | Maximum Abundance, SEQ ID NO 164, Clone ID 700122008 [1]: 6 | Maximum Abundance, SEQ ID NO 165, Clone ID 700136662 [1]: 3 | Maximum Abundance, SEQ ID NO 166, Clone ID 700144043 [1]: 4 | Maximum Abundance, SEQ ID NO 167, Clone ID 700177423 [1]: 3 | Maximum Abundance, SEQ ID NO 168, Clone ID 700247621 [1]: 4 | Maximum Abundance, SEQ ID NO 169, Clone ID 700251379 [1]: 3 | Maximum Abundance, SEQ ID NO 170, Clone ID 700272988 [1]: 5 | Maximum Abundance, SEQ ID NO 171, Clone ID 700306859 [1]: 3 | Maximum Abundance, SEQ ID NO 172, Clone ID 700307013 [1]: 3 | Maximum Abundance, SEQ ID NO 173, Clone ID 700323707 [1]: 4 | Maximum Abundance, SEQ ID NO 174, Clone ID 700513589 [1]: 4 | Maximum Abundance, SEQ ID NO 175, Clone ID 700538641 [1]: 3 | Maximum Abundance, SEQ ID NO 176, Clone ID 700592657 [1]: 3 | Maximum Abundance, SEQ ID NO 177, Clone ID 701190918 [1]: 3 | Maximum Abundance, SEQ ID NO 178, Clone ID 701313456 [1]: 3 | Maximum Abundance, SEQ ID NO 179, Clone ID 701397319 [1]: 3 | Maximum Abundance, SEQ ID NO 180, Clone ID 701429135 [1]: 6 | Maximum Abundance, SEQ ID NO 181, Clone ID 701429654 [1]: 3 | Maximum Abundance, SEQ ID NO 182, Clone ID 701458841 [1]: 3 | Maximum Abundance, SEQ ID NO 183, Clone ID 701470083 [1]: 3 | Maximum Abundance, SEQ ID NO 184, Clone ID 701562608 [1]: 3 | Maximum Abundance, SEQ ID NO 185, Clone ID 701884534 [1]: 5 | Maximum Abundance, SEQ ID NO 186, Clone ID 700068662 [1]: 6 | Maximum Abundance, SEQ ID NO 187, Clone ID 700933309 [1]: 5 | Maximum Abundance, SEQ ID NO 201, Clone ID 700062503 [1]: 3 | Maximum Abundance, SEQ ID NO 113, Clone ID 700230724 ([1]; Sex F): 4 | Maximum Abundance, SEQ ID NO 114, Clone ID 700307025 ([1]; Sex F): 4 | Maximum Abundance, SEQ ID NO 115, Clone ID 700361295 ([1]; Sex F): 3 | Maximum Abundance, SEQ ID NO 116, Clone ID 700420930 ([1]; Sex F): 3 | Maximum Abundance, SEQ ID NO 117, Clone ID 700526706 ([1]; Sex F): 3 | Maximum Abundance, SEQ ID NO 118, Clone ID 700635732 ([1]; Sex F): 3 | Maximum Abundance, SEQ ID NO 119, Clone ID 700824178 ([1]; Sex F): 3 | Maximum Abundance, SEQ ID NO 120, Clone ID 701396706 ([1]; Sex F): 4 | Maximum Abundance, SEQ ID NO 121, Clone ID 701475987 ([1]; Sex F): 3 | Maximum Abundance, SEQ ID NO 122, Clone ID 701621131 ([1]; Sex F): 3 | Maximum Abundance, SEQ ID NO 123, Clone ID 701879551 ([1]; Sex F): 3 | Maximum Abundance, SEQ ID NO 124, Clone ID 701883446 ([1]; Sex F): 3 | Maximum Abundance, SEQ ID NO 125, Clone ID 701883859 ([1]; Sex F): 3 | Maximum Abundance, SEQ ID NO 188, Clone ID 700024288 ([1]; Sex F): 2 | Maximum Abundance, SEQ ID NO 189, Clone ID 700064545 ([1]; Sex F): 3 | Maximum Abundance, SEQ ID NO 190, Clone ID 700066933 ([1]; Sex F): 2 | Maximum Abundance, SEQ ID NO 191, Clone ID 700146747 ([1]; Sex F): 3 | Maximum Abundance, SEQ ID NO 192, Clone ID 700589657 ([1]; Sex F): 3 | Maximum Abundance, SEQ ID NO 193, Clone ID 700858043 ([1]; Sex F): 1 | Maximum Abundance, SEQ ID NO 109, Clone ID 700250903 ([1]; Sex M): 11 | Maximum Abundance, SEQ ID NO 126, Clone ID 700122019 ([1]; Sex M): 4 | Maximum Abundance, SEQ ID NO 127, Clone ID 700276321 ([1]; Sex M): 4 | Maximum Abundance, SEQ ID NO 128, Clone ID 700323126 ([1]; Sex M): 3 | Maximum Abundance, SEQ ID NO 129, Clone ID 700324604 ([1]; Sex M): 3 | Maximum Abundance, SEQ ID NO 130, Clone ID 700363120 ([1]; Sex M): 3 | Maximum Abundance, SEQ ID NO 131, Clone ID 700364810 ([1]; Sex M): 3 | Maximum Abundance, SEQ ID NO 132, Clone ID 700510701 ([1]; Sex M): 4 | Maximum Abundance, SEQ ID NO 133, Clone ID 700810877 ([1]; Sex M): 5 | Maximum Abundance, SEQ ID NO 134, Clone ID 700928985 ([1]; Sex M): 6 | Maximum Abundance, SEQ ID NO 135, Clone ID 700931410 ([1]; Sex M): 4 | Maximum Abundance, SEQ ID NO 136, Clone ID 701093657 ([1]; Sex M): 4 | Maximum Abundance, SEQ ID NO 137, Clone ID 701259518 ([1]; Sex M): 3 | Maximum Abundance, SEQ ID NO 138, Clone ID 701264516 ([1]; Sex M): 4 | Maximum Abundance, SEQ ID NO 139, Clone ID 701341715 ([1]; Sex M): 4 | Maximum Abundance, SEQ ID NO 140, Clone ID 701434939 ([1]; Sex M): 4 | Maximum Abundance, SEQ ID NO 141, Clone ID 701460429 ([1]; Sex M): 3 | Maximum Abundance, SEQ ID NO 142, Clone ID 701463285 ([1]; Sex M): 4 | Maximum Abundance, SEQ ID NO 143, Clone ID 701605992 ([1]; Sex M): 4 | Maximum Abundance, SEQ ID NO 144, Clone ID 701737185 ([1]; Sex M): 3 | Maximum Abundance, SEQ ID NO 145, Clone ID 701737221 ([1]; Sex M): 4 | Maximum Abundance, SEQ ID NO 146, Clone ID 701920170 ([1]; Sex M): 3 | Maximum Abundance, SEQ ID NO 147, Clone ID 701922204 ([1]; Sex M): 3 | Maximum Abundance, SEQ ID NO 148, Clone ID 701922375 ([1]; Sex M): 4 | Maximum Abundance, SEQ ID NO 149, Clone ID 701922439 ([1]; Sex M): 4 | Maximum Abundance, SEQ ID NO 150, Clone ID 701922513 ([1]; Sex M): 4 | Maximum Abundance, SEQ ID NO 151, Clone ID 701922576 ([1]; Sex M): 4 | Maximum Abundance, SEQ ID NO 152, Clone ID 701922583 ([1]; Sex M): 3 | Maximum Abundance, SEQ ID NO 153, Clone ID 701922711 ([1]; Sex M): 3 | Maximum Abundance, SEQ ID NO 154, Clone ID 701922744 ([1]; Sex M): 4 | Maximum Abundance, SEQ ID NO 155, Clone ID 701922971 ([1]; Sex M): 3 | Maximum Abundance, SEQ ID NO 156, Clone ID 701923019 ([1]; Sex M): 5 | Maximum Abundance, SEQ ID NO 157, Clone ID 701923022 ([1]; Sex M): 3 | Maximum Abundance, SEQ ID NO 158, Clone ID 701923218 ([1]; Sex M): 4 | Maximum Abundance, SEQ ID NO 159, Clone ID 701923240 ([1]; Sex M): 4 | Maximum Abundance, SEQ ID NO 160, Clone ID 701923241 ([1]; Sex M): 3 | Maximum Abundance, SEQ ID NO 161, Clone ID 701923330 ([1]; Sex M): 3 | Maximum Abundance, SEQ ID NO 162, Clone ID 701925484 ([1]; Sex M): 4 | Maximum Abundance, SEQ ID NO 194, Clone ID 700060595 ([1]; Sex M): 3 | Maximum Abundance, SEQ ID NO 195, Clone ID 700061212 ([1]; Sex M): 3 | Maximum Abundance, SEQ ID NO 196, Clone ID 700062747 ([1]; Sex M): 2 | Maximum Abundance, SEQ ID NO 197, Clone ID 700124248 ([1]; Sex M): 3 | Maximum Abundance, SEQ ID NO 198, Clone ID 700252787 ([1]; Sex M): 3 | Maximum Abundance, SEQ ID NO 199, Clone ID 700272719 ([1]; Sex M): 3 | Maximum Abundance, SEQ ID NO 200, Clone ID 700282789 ([1]; Sex M): 3 | Gene expression (fold change) P450 3A2 (P450 3A2; 12 hours): 0.14 fold change | Gene expression (fold change) P450 3A2 (P450 3A2; 24 hours): 1.2 fold change | Gene expression (fold change) P450 3A2 (P450 3A2; 3 days): 0.63 fold change | Gene expression (fold change) P450 3A2 (P450 3A2; 7 days): 0.50 fold change | Gene expression (fold change) P450 3A2 (P450 3A2; 28 days): 0.45 fold change | Gene expression (fold change) P450 4A (P450 4A; 12 hours): 7.0 fold change | Gene expression (fold change) P450 4A (P450 4A; 24 hours): 16.6 fold change | Gene expression (fold change) P450 4A (P450 4A; 3 days): 1.4 fold change | Gene expression (fold change) P450 4A (P450 4A; 7 days): 0.5 fold change | Gene expression (fold change) P450 4A (P450 4A; 28 days): 1.3 fold change | Maximum Abundance, SEQ ID NO 9, Clone ID 700308908 [2]: 6 | Maximum Abundance, SEQ ID NO 11, Clone ID 700131403 [2]: 4 | Maximum Abundance, SEQ ID NO 10, Clone ID 700139239 ([2]; Sex M): 4 | Gene expression (fold change) P450 LA-omega 4A3 (P450 LA-omega 4A3; 12 hours): 14.8 fold change | Gene expression (fold change) P450 LA-omega 4A3 (P450 LA-omega 4A3; 24 hours): 26.6 fold change | Gene expression (fold change) P450 LA-omega 4A3 (P450 LA-omega 4A3; 3 days): 1.1 fold change | Gene expression (fold change) P450 LA-omega 4A3 (P450 LA-omega 4A3; 7 days): 0.5 fold change | Gene expression (fold change) P450 LA-omega 4A3 (P450 LA-omega 4A3; 28 days): 0.47 fold change
